The text below walks through data of patent publication US8658000B2, “Preparation method of apigenin and dehydrosilybin mixture using radiation” (Korea Atomic Energy Research Institute, priority 2011, dated 2014).

As usually defined, the viability is the share of living cells, or the viability signal relative to a control. A higher viability goes with less harm to the cells.

Molecules are shown by their SMILES. Some results are limits rather than exact numbers.

The test system of assay [1] is prostate carcinoma cell line (DU145). The assay is described as follows: EZ-Cytox cell viability assay, prostate carcinoma cell line (DU145). It is filed as cell-based. The conditions noted are these: Homo sapiens, DU-145; DU145, 50 μg/mL, 24 h, non-treated = 100. As to the method: (§1) To investigate the cancer cell inhibitory effect of the compounds of formulae 1 and 2 obtained by the preparation method according to the present invention, experiment was conducted. EZ-Cytox cell viability assay kit (Daeil Lab, Korea) was used to measure cancer cell growth inhibitory activity, and prostate carcinoma cell line (DU145), cervical carcinoma cell line (Hela), colon carcinoma cell line (SW480), and lung carcinoma cell line (H460) were used for cancer cells. All the cancer cells were incubated in 96-well plate at concentration of 5×10^4 cells/mL. After 24 h, dehydrosilybin compound of formula 1 and apigenin compound of formula 2 according to the present invention, and starting substance (i.e., silybin) as a control were treated at concentration of 50 μg/mL. After culturing at 37° C., 5% carbon dioxide environment, 24 h, 10 μL of kit solution was treated in each well. After 3 h of additional culturing, the optical absorbance was measured at 480 nm. The result is listed in Tables 3 to 6 and illustrated in FIGS. 2 to 7.

Assay [2] has as its system colon carcinoma cell line (SW480). The assay is described as follows: EZ-Cytox cell viability assay, colon carcinoma cell line (SW480). The conditions noted are these: Homo sapiens; SW480, 50 μg/mL, 24 h, non-treated = 100. It is filed as cell-based. How it is done:
as §1

For assay [3], the system named is colon carcinoma cell line (SW620). The assay can be described thus: EZ-Cytox cell viability assay, colon carcinoma cell line (SW620). It is filed as cell-based. To be noted: Homo sapiens, SW-620; SW620, 50 μg/mL, 24 h, non-treated = 100.
The subject of assay [4] is lung carcinoma cell line (A549). The assay can be described thus: EZ-Cytox cell viability assay, lung carcinoma cell line (A549). It is filed as cell-based. The conditions noted are these: Homo sapiens; A549, 50 μg/mL, 24 h, non-treated = 100.
Assay [5] deals with lung carcinoma cell line (H460). The assay is described as follows: EZ-Cytox cell viability assay, lung carcinoma cell line (H460). It is filed as cell-based. The conditions noted are these: Homo sapiens, NCI-H460; H460, 50 μg/mL, 24 h, non-treated = 100. How it is done:
as §1

Assay [6] has as its system cervical carcinoma cell line (Hela). The assay can be described thus: EZ-Cytox cell viability assay, cervical carcinoma cell line (Hela). The format is cell-based. To be noted: Homo sapiens, 50 μg/mL, 24 h, non-treated = 100. As to the method: as §1
The test system of a further assay is various cancers. To be noted: background statement; cited from earlier work.

For `COc1cc(C2Oc3cc(-c4oc5cc(O)cc(O)c5c(=O)c4O)ccc3OC2CO)ccc1O` (stereo not shown) [Compound of formula 1], the viability at 50 µg/mL is 40.4% in assay [1]; 41.7% in assay [2]; 27.8% in assay [3]; 58.9% in assay [4]; 66.3% in assay [5]; 21.1% in assay [6].

As for `O=c1cc(-c2ccc(O)cc2)oc2cc(O)cc(O)c12` [Compound of formula 2, 5,7-dihydroxy-2-(4-hydroxyphenyl)-4H-chroman-4-one], the viability at 50 µg/mL in assay [1] is 51.6%; in assay [2], 49.2%; in assay [3], 39.4%; in assay [4] it was 72.1%; in assay [5], 97.4%; in assay [6], 38.7%. The “concentration at which apigenin can effectively act (anticancer activity)” value with various cancers was less than 50 µM.
